Here are results for 2 compounds from patent US12227500B2, “Substituted pyrrolo[2,3-b]pyridines for suppressing toxic endoplasmic reticulum stress” (THE TRUSTEES OF COLUMBIA UNIVERSITY IN THE CITY OF NEW YORK, priority 2018, dated 2025).

The test system of one series is phospho-cjun. The experiment in a line: Phospho-cjun in olfactory bulbs after treatment in vivo (western blot). More on the design: species or system mouse. To be noted: 10 mg/kg oral gavage. On the procedure: Compounds at 10 mg/kg were delivered intraperitoneally (IP), orally, or sub-cutaneously (SC). Animals were sacrificed 1 h after treatment. Their olfactory bulbs were dissected and lysed for western blot analysis. Phospho-cjun expression was normalized to the housekeeping protein GAPDH.
We therefore selected phospho-cjun as a marker of target engagement for further in vivo studies. C-jun is highly expressed throughout the murine central nervous system, especially in the olfactory bulbs. […] Animals were then sacrificed after 1 h, and their olfactory bulbs were sub-dissected and lysed for further western blot analysis. Samples were probed with an antibody specific to phosphorylated c-jun (at serine 63; cell signaling) and normalized to the housekeeping gene GAPDH.

Series [1] in a line: Safety of long-term administration in drinking water. Type of series: in vivo. To be noted: 10 mg/kg, 60 days from P30. An excerpt: […]. Treatment began at P30 and continued for 60 days.
Series [2] relates to mouse ES-derived motor neurons. The experiment in a line: Western blot of JNK pathway activation in CPA-treated motor neurons. Format: cell-based. To be noted: 4 h. The protocol: Mouse ES-derived motor neurons were treated with CPA, CPA+ compound 1, or vehicle control (DMSO) for four hours. Cells were then lysed to extract proteins.
Samples were harvested after 4 h of treatment. N=samples from 3 separate motor neuron differentiations treated and lysed separately. Cells from each differentiation were split into three samples, one for each treatment condition. All samples were run concurrently on the same blot. All band intensities were normalized to GAPDH to control for loading, then DMSO and CPA+Compound 1 values were normalized to CPA values for each n. One-way ANOVAs were used to evaluate the overall effects of treatment on JNK phosphorylation (P=0.0009; F=28.33; R2=0.9042) and c-Jun phosphorylation (P<0.0001; F=101.9; R2=0.9714).
Whole mouse embryoid bodies at day 6 of differentiation were treated with CPA (10 μM) and test compounds for 4 h, then lysed and sonicated in ice-cold buffer containing HEPES (50 mM), NaCl (100 mM), Triton-X (1%), SDS (0.1%), DTT (1 mM), EDTA (1 mM), plus protease and phosphatase inhibitor cocktail tablets (Roche). Total protein content was analyzed using a BCA kit according to the manufacturer's instructions (Pierce). […] Samples were run for 4 h at 100V at 4°, then transferred to nitrocellulose membranes using an iBlot dry transfer system (Thermo Fisher). Membranes were blocked with tris-buffered saline (TBS) containing 5% BSA (Cell Signaling Technologies), then incubated with primary antibodies in a buffer containing 5% BSA and 0.1% Tween in TBS overnight at 4°. Primary antibodies against phospho-c-Jun (serine 63; Cell Signaling Technologies #9261) were added at 1:500; primary antibodies against phospho-JNK (thr183/tyr185; Cell Signaling Technologies #4688) were added at 1:1000; primary antibodies against GAPDH (Santa Cruz Biotechnologies) were added at 1:1000 as a loading control. Following washes in TBS containing 0.1% Tween, membranes were incubated in goat anti-rabbit HRP-conjugated secondary antibody solutions (1:10,000; Santa Cruz Biotechnologies) for 1 hr. Membranes were then washed again in TBS containing 0.1% Tween, then incubated in Femto ECL (Pierce) for 5 min. Chemiluminescence was visualized using a LiCor Odyssey. Phospho-c-Jun and phopsho-JNK band intensities were normalized to GAPDH.
A general note: In western blotting, separated proteins are transferred to a membrane and probed.

A short description of series [3]: Pharmacokinetics of compound 1 in mice (background). To be noted: mouse, in vivo.

Structures are written as SMILES. Entries after “also recorded” stand apart in the source; their conditions may differ.

For the compound `OCCN1CCN(Cc2ccc(-c3cnc4[nH]cc(-c5cccc(Cl)c5)c4c3)cc2)CC1` [Compound 12k, 2-(4-(4-(3-(3-Chlorophenyl)-1H-pyrrolo[2,3-b]pyridin-5-yl)benzyl)piperazin-1-yl)ethan-1-ol], the “oral bioavailability (from reduction of cjun phosphorylation after oral gavage)” value with phospho-cjun was “orally bioavailable”. Moreover, in series [1], the “body mass vs vehicle-treated controls” value is “mild increase in body mass” and the “survival, hindlimb strength, gross pathology” value is on record as “No differences in survival, hindlimb strength, or gross pathology”.

As a reminder, the half-life is how long it takes for the measured level to halve. A higher half-life goes with slow loss. Take `CN1CCN(Cc2ccc(-c3cnc4[nH]cc(-c5ccc6[nH]ccc6c5)c4c3)cc2)CC1` [Compound 1, 3-(1H-Indol-5-yl)-5-(4-((4-methylpiperazin-1-yl)methyl)phenyl)-1H-pyrrolo[2,3-b]pyridine, reference compound]: in series [2], the “JNK phosphorylation in CPA-treated motor neurons” value is “strongly attenuated; also recorded: significantly decreased JNK phosphorylation”, the “MKK4 phosphorylation in CPA-treated MNs” value is “strongly attenuated”, the “c-Jun phosphorylation in CPA-treated motor neurons” value is listed as “strongly suppressed; also recorded: below the threshold of detection” and the “caspase 3 cleavage in CPA-treated MNs” value is listed as “strongly suppressed”. For the same compound, in series [3], the half-life fell in the range of 2 to 3 h.
